These results are taken from patent publication US4444690A, “Technetium chelates” (priority 1982, dated 1984).

A short description of data set [1]: Blood disappearance rates in rats (FIG. 3). Particulars: rats, FIG. 3. The data set is classed as in vivo, male Sprague-Dawley rats. The source says: These determinations were made in male Sprague-Dawley rats.
The conditions of data set [2]: rabbits, FIG. 4. As for the experimental part:
Organ biodistribution and acute toxicity studies were carried out in mice, blood disappearance and bile appearance rates were determined by sampling of bood or bile in rats, and renal excretion rates of the two Tc-2,3-bis(mercaptoacetamido)propanoic acid components, Tc-DTPA, and OIH were determined in rabbits because of greater ease of urine sampling. The HPLC-purified Tc-2,3-bis(mercaptoacetamido)propanoate components were used directly except for dilution as necessary. In general HPLC collected volumes were 1 to 1.5 ml and were not diluted for rabbit studies, were diluted 2- to 10-fold for rat studies and were diluted about 20-fold for mouse studies. In most cases determinations were made with simultaneous administration of OIH.
The rate of renal excretion was measured in New Zealand albino male rabbits. They were anesthetized with ketamine and xylazine and placed on a gamma camera provided with digital storage. After injection of 0.5 to 1 mCi of the Tc-99m complex containing 0.5μCi of OIH, images were collected on tape for 45 minutes. At 35 minutes after injection, urine was expelled from the bladder and the percentage of injected dose contained in the expelled urine was determined. Accumulation of bladder radioactivity was monitored by placing a region of interest over the bladder. The drop in the radioactivity in the bladder after expelling the urine sample (50-80% of the bladder radioactivity) allowed calibration of the bladder time-activity curve in terms of percent injected dose.

A short description of data set [3]: Organ biodistribution time course of Tc-CO2-DADS components in mice (Table 1). The data set is classed as in vivo, Hal Cr female albino mice. As to conditions: mice; for Blood / Intestines / Kidneys / Liver / Stomach / Urine: mean of 6, listed as Tc--CO2 DADS--B.
Method: The time course of organ distribution was determined in groups of six Hal Cr female albino mice. They were injected with 0.10 ml (0.5 uCi) of the preparation. For comparison purposes, 0.2 uCi OIH was added to each injection. The mice were placed in metabolic cages for the collection of excreted urine. At indicated intervals after injection, the urethra was ligated and the mice killed with chloroform vapor. The organs were removed and counted in a dual channel counter with correction for I-131 crossover into the Tc-99m channel.
A further data set concerns plasma proteins. Description: Plasma protein binding, ultrafiltration. Type of data set: in vitro ADME. As to conditions: plasma. As for the experimental part: Studies of protein binding were carried out in plasma using an ultrafiltration method described at J.Nucl.Med. 22, 258-263, 1981.
The conditions of data set [4]: mice, mean of 6. As for the experimental part:
The time course of organ distribution was determined in groups of six Hal Cr female albino mice. They were injected with 0.10 ml (0.5 uCi) of the preparation. For comparison purposes, 0.2 uCi OIH was added to each injection. The mice were placed in metabolic cages for the collection of excreted urine. At indicated intervals after injection, the urethra was ligated and the mice killed with chloroform vapor.

Setting [5] is: 120 min post injection, 120 min.

Structures are written as SMILES. Entries after “also recorded” stand apart in the source; their conditions may differ. Like-named read-outs stand apart in the source and are kept apart here.

Consider `O=C(O)C1C[N]2C(=O)C[S][99Tc-]23(=[O])[S]CC(=O)[N]13` (single isomer, unassigned) [Tc-2,3-bis(mercaptoacetamido)propanoate-B] [Tc-99m-2,3-bis(mercaptoacetamido)propanoate], for which the “blood disappearance in words” value in data set [1] is reported as “faster than Tc-DTPA, was significantly slower than Tc-2,3-bis(mercaptoacetamido)propanoate-A”; in data set [1] (listed as component B) it was “significantly faster than Tc-DTPA”. Further, the “renal excretion (urine appearance) in words” value is “significantly lower at early times, but similar to component A and OIH at 35 minutes” in data set [2]; “always faster than Tc-DTPA, but significantly slower than OIH or component A at early times” in data set [2] (listed as Component B). Moreover, in data set [3], the “biliary excretion in words” value was “Negligible biliary excretion”. Besides, the values for the Blood in data set [3] (10 min post injection) and in data set [3] (120 min post injection) were 3.64 percent injected dose and 0.14 percent injected dose, respectively. The figures for the Intestines in data set [3] (10 min post injection) and in data set [3] (120 min post injection) were 1.00 percent injected dose and 0.21 percent injected dose, respectively. In addition, the Kidneys is on record as 2.87 percent injected dose in data set [3] (10 min post injection) and 0.14 percent injected dose in data set [3] (120 min post injection). For the same compound, the Liver in data set [3] (10 min post injection) was found to be 14.83 percent injected dose; in data set [3] (120 min post injection), 3.71 percent injected dose. For the same compound, the Stomach in data set [3] (10 min post injection) was 0.13 percent injected dose; in data set [3] (120 min post injection), 0.02 percent injected dose. For the same compound, the Urine in data set [3] (10 min post injection, 10 min) was 51.94 percent injected dose; in data set [3] (setting [5]), 79.16 percent injected dose. Also, in data set [3] (comparison with OIH or component A, listed as Tc-2,3-bis(mercaptoacetamido)proponoate-B), the “renal excretion / clearance in words” value is recorded as “more slowly cleared; also recorded: renal excretion was only slightly lower than OIH determined simultaneously”. Besides, the “binding to plasma proteins” value is recorded as 87% in the data set with plasma proteins (10 min) and 90% in the data set on plasma proteins (0.5 h).
Regarding `O=C(O)C1C(C(=O)O)[N]2C(=O)C[S][99Tc-]23(=[O])[S]CC(=O)[N]13` (single isomer, unassigned) [Tc--99m--2,3--(MERCAPTOACETAMIDO) SUCCINATE Component A] [Tc-99m chelate of 2,3-bis(mercaptoacetamido)succinic acid], in data set [4] (10 min post injection), the Blood was found to be 10.13, the Intestines is 2.16, the Kidneys is 3.41 and the Liver is reported as 5.80. Besides, in data set [4] (10 min post injection), the Stomach stood at 0.40. Also, the Urine in data set [4] (10 min post injection, 10 min) amounted to 32.32. Also, in data set [4] (120 min post injection), the Blood was 0.44, the Intestines turned out to be 0.30, the Kidneys was 7.44 and the Liver is listed as 3.17. This compound also returned a Stomach in data set [4] (120 min post injection) of 0.03. Further, in data set [4] (setting [5]), the Urine is listed as 77.73.
As for `O=C(O)C1C(C(=O)O)[N]2C(=O)C[S][99Tc-]23(=[O])[S]CC(=O)[N]13` (single isomer, unassigned) [Tc--99m--2,3--(MERCAPTOACETAMIDO) SUCCINATE Component B] [Tc-99m chelate of 2,3-bis(mercaptoacetamido)succinic acid], in data set [4] (10 min post injection), the Blood was 16.21, the Intestines is on record as 2.88, the Kidneys is reported as 3.43 and the Liver was found to be 7.06. Further, in data set [4] (10 min post injection), the Stomach came to 0.53. The Urine in data set [4] (10 min post injection, 10 min) was 19.32. Further, in data set [4] (120 min post injection), the Blood was determined as 0.87, the Intestines came out at 8.85, the Kidneys was found to be 0.65 and the Liver was found to be 2.33. This compound also displayed a Stomach in data set [4] (120 min post injection) of 0.49. This compound also came in with a Urine in data set [4] (setting [5]) of 66.92.
